The results in this text go back to US8440710B2, “HSL inhibitors useful in the treatment of diabetes” (Hoffmann-La Roche Inc., priority 2009, dated 2013).

In the experiment the target is T1, human HSL (Homo sapiens, UniProt Q05469).
T1 construct: generate a full length human HSL ORF with a 3′-His6 tag; made in house; host or cells: High 5 insect cells (baculovirus, pFast-BAC)
T1 sequence (Q05469 1-1076): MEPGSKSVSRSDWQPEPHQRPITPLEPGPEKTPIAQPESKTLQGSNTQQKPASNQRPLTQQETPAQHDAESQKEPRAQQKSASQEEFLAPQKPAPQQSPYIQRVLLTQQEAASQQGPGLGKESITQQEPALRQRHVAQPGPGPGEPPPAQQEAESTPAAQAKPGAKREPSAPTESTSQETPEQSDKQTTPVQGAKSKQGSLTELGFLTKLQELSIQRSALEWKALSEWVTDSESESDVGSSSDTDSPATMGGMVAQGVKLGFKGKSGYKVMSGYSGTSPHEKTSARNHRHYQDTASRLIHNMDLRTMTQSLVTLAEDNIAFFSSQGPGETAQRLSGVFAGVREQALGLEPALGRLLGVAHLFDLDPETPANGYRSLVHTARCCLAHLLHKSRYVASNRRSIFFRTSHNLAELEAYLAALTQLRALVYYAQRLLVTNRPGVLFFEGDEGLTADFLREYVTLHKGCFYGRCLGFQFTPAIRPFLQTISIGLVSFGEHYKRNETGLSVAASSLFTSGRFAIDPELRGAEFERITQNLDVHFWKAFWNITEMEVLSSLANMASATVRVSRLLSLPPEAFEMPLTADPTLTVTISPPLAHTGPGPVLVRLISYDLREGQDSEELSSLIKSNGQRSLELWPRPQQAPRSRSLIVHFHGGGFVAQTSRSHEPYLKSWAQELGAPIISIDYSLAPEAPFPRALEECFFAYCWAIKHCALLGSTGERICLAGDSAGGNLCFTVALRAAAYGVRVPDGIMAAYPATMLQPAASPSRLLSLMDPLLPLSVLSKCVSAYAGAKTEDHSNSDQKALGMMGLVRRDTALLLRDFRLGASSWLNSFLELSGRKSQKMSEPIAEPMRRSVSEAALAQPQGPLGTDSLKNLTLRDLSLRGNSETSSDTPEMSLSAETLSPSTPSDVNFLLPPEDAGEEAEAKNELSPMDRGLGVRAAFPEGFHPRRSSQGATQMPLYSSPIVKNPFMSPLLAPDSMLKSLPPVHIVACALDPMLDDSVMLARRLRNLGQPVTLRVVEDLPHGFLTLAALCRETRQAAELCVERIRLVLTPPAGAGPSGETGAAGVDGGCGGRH
The experiment is described as follows: Human Hormone-Sensitive Lipase (HSL) enzyme inhibition assay (colorimetric, DMPT substrate). To be noted: human full length HSL-His6, 2,3-dimercapto-1-propanol tributyrate substrate, 37° C. 20 minutes, absorbance at 405 nm; read-out: HSL hum IC50. It is filed as biochemical. The gist of the method: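 Full-length human HSL with C-terminal His6, expressed in baculovirus-infected High 5 cells and Ni-NTA purified, was added (15 ug/ml stock) to 1.5 mM DMPT in 100 mM MOPS pH 7.2, 0.2 mg/ml fatty acid-free BSA containing compound. After 20 min at 37 °C, DTNB with SDS/Triton X-100 was added; A405 read after 15 min at RT.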
Take `C[C@H](Oc1ccc(N2CC[C@]3(CC[C@@](O)(COCC(F)(F)F)CC3)C2=O)cc1)C(F)(F)F` [Example 283, (5α,8α)-8-Hydroxy-8-(2,2,2-trifluoro-ethoxymethyl)-2-[4-((S)-2,2,2-trifluoro-1-methyl-ethoxy)-phenyl]-2-aza-spiro[4.5]decan-1-one]: the IC50 was 10 nM. The same measure for `CCOC[C@]1(O)CC[C@@]2(CCN(c3ccc(O[C@H](C)C(F)(F)F)cc3)C2=O)CC1` [Example 252, (5α,8β)-8-Ethoxymethyl-8-hydroxy-2-[4-((R)-2,2,2-trifluoro-1-methyl-ethoxy)-phenyl]-2-aza-spiro[4.5]decan-1-one]: 230 nM. The same measure for `COCCO[C@H]1CC[C@@]2(CCN(c3ccc(OC(F)(F)F)cc3)C2=O)CC1` [Example 23, (5α,8β)-8-(2-Methoxy-ethoxy)-2-(4-trifluoromethoxy-phenyl)-2-aza-spiro[4.5]decan-1-one]: 190 nM; for `CC#C[C@]1(O)CC[C@]2(CCN(c3ccc(OCC(F)(F)F)cc3)C2=O)CC1` [Example 111, (5α,8α)-8-Hydroxy-8-prop-1-ynyl-2-[4-(2,2,2-trifluoro-ethoxy)phenyl]-2-aza-spiro[4.5]decan-1-one]: 100 nM; for `CC(C)CS(=O)(=O)C[C@]1(O)CC[C@]2(CCN(c3ccc(C(C)(C)C)cc3)C2=O)CC1` [Example 332, (5α,8α)-2-(4-tert-Butyl-phenyl)-8-hydroxy-8-(2-methyl-propane-1-sulfonylmethyl)-2-aza-spiro[4.5]decan-1-one]: 7 nM. The same measure for `C=CC[C@]1(O)CC[C@@]2(CCN(c3ccc(O[C@H](C)C(F)(F)F)cc3)C2=O)CC1` [Example 143, (5α,8β)-8-Allyl-8-hydroxy-2-[4-((R)-2,2,2-trifluoro-1-methyl-ethoxy)-phenyl]-2-aza-spiro[4.5]decan-1-one]: 1480 nM; for `C[C@]1(O)CC[C@@]2(CCN(c3ccc(C4CC4)cc3)C2=O)CC1` [Example 74, (5α,8β)-2-(4-Cyclopropyl-phenyl)-8-hydroxy-8-methyl-2-aza-spiro[4.5]decan-1-one]: 800 nM; for `C[C@H](Oc1ccc(N2CC[C@]3(CC[C@@](O)(C(F)(F)F)CC3)C2=O)cc1)C(F)(F)F` [Example 177a, (5α,8α)-8-Hydroxy-8-trifluoromethyl-2-[4-((S)-2,2,2-trifluoro-1-methyl-ethoxy)-phenyl]-2-aza-spiro[4.5]decan-1-one]: 40 nM.

Consider `O=C(NCc1cccc(F)c1)O[C@H]1CC[C@@]2(CCN(c3ccc(OC(F)(F)F)cc3)C2=O)CC1` [Example 10, (3-Fluoro-benzyl)-carbamic acid [(5α,8β)-1-oxo-2-(4-trifluoromethoxy-phenyl)-2-aza-spiro[4.5]dec-8-yl]ester], for which the IC50 was found to be 60 nM. With `O=C1N(c2ccc(OCC(F)(F)F)cc2)CC[C@]12CC[C@@](O)(COc1ccccn1)CC2` [Example 371, (5α,8α)-8-Hydroxy-8-(pyridin-2-yloxymethyl)-2-[4-(2,2,2-trifluoro-ethoxy)-phenyl]-2-aza-spiro[4.5]decan-1-one], the IC50 came to 20 nM. As for `CC(C)(C)SC[C@]1(O)CC[C@]2(CCN(c3ccc(OCC(F)(F)F)cc3)C2=O)CC1` [Example 319, (5α,8α)-8-tert-Butylsulfanylmethyl-8-hydroxy-2-[4-(2,2,2-trifluoro-ethoxy)-phenyl]-2-aza-spiro[4.5]decan-1-one], the figure is 10 nM; as for `CC(C)OC[C@]1(O)CC[C@@]2(CCN(c3ccc(O[C@H](C)C(F)(F)F)nc3)C2=O)CC1` [Example 315, (5α,8β)-8-Hydroxy-8-isopropoxymethyl-2-[6-((R)-2,2,2-trifluoro-1-methyl-ethoxy)-pyridin-3-yl]-2-aza-spiro[4.5]decan-1-one], 180 nM.

For the compound `COCCc1ccc(N2CC[C@]3(CC[C@@](O)(C(C)C)CC3)C2=O)cc1` [Example 128, (5α,8α)-8-Hydroxy-8-isopropyl-2-[4-(2-methoxy-ethyl)-phenyl]-2-aza-spiro[4.5]decan-1-one], the IC50 worked out at 50 nM. The same measure for `CCC[C@]1(O)CC[C@]2(CCN(c3ccc(O[C@H](C)C(F)(F)F)nc3)C2=O)CC1` [Example 176, (5α,8α)-8-Hydroxy-8-propyl-2-[6-((R)-2,2,2-trifluoro-1-methyl-ethoxy)-pyridin-3-yl]-2-aza-spiro[4.5]decan-1-one]: 20 nM; for `O=C1N(c2ccc(OC(F)(F)F)cc2)CC[C@]12CC[C@H](Sc1ccccc1)CC2` [Example 52, (5α,8α)-8-Phenylsulfanyl-2-(4-trifluoromethoxy-phenyl)-2-aza-spiro[4.5]decan-1-one]: 2270 nM; for `COc1ccc(N2CC[C@]3(CC[C@H](OCc4ccccc4)CC3)C2=O)cc1` [Example 40, (5α,8α)-8-Benzyloxy-2-(4-methoxy-phenyl)-2-aza-spiro[4.5]decan-1-one]: 4590 nM. As to `CCc1ccc(N2CC[C@]3(CC[C@@](O)(COc4ccccc4)CC3)C2=O)cc1` [Example 228, (5α,8α)-2-(4-Ethyl-phenyl)-8-hydroxy-8-phenoxymethyl-2-aza-spiro[4.5]decan-1-one], the IC50 was 20 nM.

`C[C@@H](Oc1ccc(N2CC[C@]3(CC[C@@](O)(COCC(F)(F)F)CC3)C2=O)cc1)C(F)(F)F` [Example 285, (5α,8α)-8-Hydroxy-8-(2,2,2-trifluoro-ethoxymethyl)-2-[4-((R)-2,2,2-trifluoro-1-methyl-ethoxy)-phenyl]-2-aza-spiro[4.5]decan-1-one]: the IC50 came out at 10 nM.

For `CCC[C@]1(O)CC[C@]2(CCN(c3ccc(O[C@@H](C)C(F)(F)F)cc3)C2=O)CC1` [Example 164a, (5α,8α)-8-Hydroxy-8-propyl-2-[4-((S)-2,2,2-trifluoro-1-methyl-ethoxy)-phenyl]-2-aza-spiro[4.5]decan-1-one], the IC50 worked out at 20 nM. The same measure for `O=C1N(c2ccc([C@@H](O)C(F)(F)F)cc2)CC[C@]12CC[C@@](O)(C1CCC1)CC2` [Example 200, (5α,8α)-8-cyclobutyl-8-hydroxy-2-(4-((R)-2,2,2-trifluoro-1-hydroxyethyl)phenyl)-2-aza-spiro[4.5]decan-1-one]: 20 nM; for `CCC(O)[C@H]1CC[C@@]2(CCN(c3ccc(C(C)(C)C)cc3)C2=O)CC1` (stereo partly drawn) [Example 359, (5α,8β)-2-(4-tert-Butyl-phenyl)-8-(1-hydroxy-propyl)-2-aza-spiro[4.5]decan-1-one]: 30 nM; for `CC(C)[C@]1(O)CC[C@@]2(CCN(c3ccc(OCC(F)(F)F)cc3)C2=O)CC1` [Example 107, (5α,8β)-8-Hydroxy-8-isopropyl-2-(4-(2,2,2-trifluoroethoxy)phenyl)-2-aza-spiro[4.5]decan-1-one]: 2030 nM. As for `COCCc1ccc(N2CC[C@]3(CC[C@@](O)(C(F)(F)F)CC3)C2=O)cc1` [Example 123, (5α,8α)-8-Hydroxy-2-[4-(2-methoxy-ethyl)-phenyl]-8-trifluoromethyl-2-aza-spiro[4.5]decan-1-one], the figure is 420 nM; as for `C[C@]1(O)CC[C@@]2(CCN(c3ccc(OCC(F)(F)F)cc3)C2=O)CC1` [Example 87, (5α,8β)-8-Hydroxy-8-methyl-2-[4-(2,2,2-trifluoro-ethoxy)-phenyl]-2-aza-spiro[4.5]decan-1-one], 3820 nM; as for `O=C1N(c2ccc(OC(F)(F)F)cc2)CC[C@]12CC[C@](O)(Cc1ccccc1)CC2` [Example 63, (5α,8β)-8-Benzyl-8-hydroxy-2-(4-trifluoromethoxy-phenyl)-2-aza-spiro[4.5]decan-1-one], 600 nM. As for `O=C1N(c2ccc(CC(F)(F)F)cc2)CC[C@]12CC[C@](O)(COCC(F)F)CC2` [Example 302, (5α,8β)-8-(2,2-Difluoro-ethoxymethyl)-8-hydroxy-2-[4-(2,2,2-trifluoro-ethyl)-phenyl]-2-aza-spiro[4.5]decan-1-one], the figure is 510 nM; as for `CCS(=O)(=O)C[C@]1(O)CC[C@]2(CCN(c3ccc(OCC(F)(F)F)cc3)C2=O)CC1` [Example 275, (5α,8α)-8-Ethanesulfonylmethyl-8-hydroxy-2-[4-(2,2,2-trifluoro-ethoxy)-phenyl]-2-aza-spiro[4.5]decan-1-one], 80 nM.
